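Where inhibition never reached the appropriate level, the endpoint shown equals the highest concentration tested. Otherwise, values were interpolated linearly from a five-concentration, 48-hour dose response in 96-well plates. TGI: total growth inhibition.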
Test system: PC-3 prostate
Experiment: DTP human tumour cell line panel, 48 h

`Cc1ccc(/C(O)=C/c2nc3ccccc3[nH]c2=O)cc1` was tested. Which TGI did it give?
Its TGI is over 100 µM.

For `COc1ccc2c(c1)CCc1cc(C(N)=O)c3nnnn3c1-2`, which TGI is on record?
Its TGI is over 100 µM.

With `O=C(O)C1Cc2c([nH]c3ccccc23)C(CCCCO)N1` (stereo not given) as the compound, how does the TGI read?
The TGI was over 100 µM.

Which TGI does the source give for `Cc1cc(Cc2c(C)c(C)c(Cc3cc(C)cc(C(C)(C)C)c3O)c(C)c2C)c(O)c(C(C)(C)C)c1` here?
The TGI was over 100 µM.

Test system: SNB-19 CNS
Experiment: DTP human tumour cell line panel, 48 h

For `CC(=O)Oc1ccc2c3c1[C@H]1O[C@H]1c1cccc(c1-3)[C@@H]1O[C@H]21`, which TGI is on record?
The TGI was 30.5 µM.

For `Cc1ccc(/C(O)=C/c2nc3ccccc3[nH]c2=O)cc1`, which TGI is on record?
The TGI was 27.8 µM.

`COc1ccc2c(c1)CCc1cc(C(N)=O)c3nnnn3c1-2` was tested. Which TGI did it give?
Its TGI is over 100 µM.

With `O=C(O)C1Cc2c([nH]c3ccccc23)C(CCCCO)N1` (stereo not given) as the compound, how does the TGI read?
Its TGI is over 100 µM.

`Cc1cc(Cc2c(C)c(C)c(Cc3cc(C)cc(C(C)(C)C)c3O)c(C)c2C)c(O)c(C(C)(C)C)c1` was tested. Which TGI did it give?
Its TGI is over 100 µM.

Test system: SR leukemia
Experiment: DTP human tumour cell line panel, 48 h

Which TGI does the source give for `CC(=O)Oc1ccc2c3c1[C@H]1O[C@H]1c1cccc(c1-3)[C@@H]1O[C@H]21` here?
The TGI was over 100 µM.

With `Cc1ccc(/C(O)=C/c2nc3ccccc3[nH]c2=O)cc1` as the compound, how does the TGI read?
The TGI was 72.9 µM.

With `COc1ccc2c(c1)CCc1cc(C(N)=O)c3nnnn3c1-2` as the compound, how does the TGI read?
The TGI was over 100 µM.

For `O=C(O)C1Cc2c([nH]c3ccccc23)C(CCCCO)N1` (stereo not given), which TGI is on record?
Its TGI is over 100 µM.

How did the TGI turn out when `Cc1cc(Cc2c(C)c(C)c(Cc3cc(C)cc(C(C)(C)C)c3O)c(C)c2C)c(O)c(C(C)(C)C)c1` was run?
Its TGI is over 100 µM.

Test system: BT-549 breast
Experiment: DTP human tumour cell line panel, 48 h

How did the TGI turn out when `CC(=O)Oc1ccc2c3c1[C@H]1O[C@H]1c1cccc(c1-3)[C@@H]1O[C@H]21` was run?
Its TGI is 23.6 µM.

How did the TGI turn out when `Cc1ccc(/C(O)=C/c2nc3ccccc3[nH]c2=O)cc1` was run?
Its TGI is 95.3 µM.

Which TGI does the source give for `COc1ccc2c(c1)CCc1cc(C(N)=O)c3nnnn3c1-2` here?
The TGI was over 100 µM.

With `O=C(O)C1Cc2c([nH]c3ccccc23)C(CCCCO)N1` (stereo not given) as the compound, how does the TGI read?
The TGI was over 100 µM.

How did the TGI turn out when `Cc1cc(Cc2c(C)c(C)c(Cc3cc(C)cc(C(C)(C)C)c3O)c(C)c2C)c(O)c(C(C)(C)C)c1` was run?
Its TGI is over 100 µM.

Test system: MALME-3M melanoma
Experiment: DTP human tumour cell line panel, 48 h

How did the TGI turn out when `CC(=O)Oc1ccc2c3c1[C@H]1O[C@H]1c1cccc(c1-3)[C@@H]1O[C@H]21` was run?
Its TGI is 5.76 µM.

Which TGI does the source give for `Cc1ccc(/C(O)=C/c2nc3ccccc3[nH]c2=O)cc1` here?
The TGI was 13.4 µM.

With `COc1ccc2c(c1)CCc1cc(C(N)=O)c3nnnn3c1-2` as the compound, how does the TGI read?
The TGI was over 100 µM.

`O=C(O)C1Cc2c([nH]c3ccccc23)C(CCCCO)N1` (stereo not given) was tested. Which TGI did it give?
The TGI was over 100 µM.

With `Cc1cc(Cc2c(C)c(C)c(Cc3cc(C)cc(C(C)(C)C)c3O)c(C)c2C)c(O)c(C(C)(C)C)c1` as the compound, how does the TGI read?
The TGI was over 100 µM.

Test system: SNB-75 CNS
Experiment: DTP human tumour cell line panel, 48 h

Which TGI does the source give for `CC(=O)Oc1ccc2c3c1[C@H]1O[C@H]1c1cccc(c1-3)[C@@H]1O[C@H]21` here?
The TGI was 15.7 µM.

Which TGI does the source give for `Cc1cc(Cc2c(C)c(C)c(Cc3cc(C)cc(C(C)(C)C)c3O)c(C)c2C)c(O)c(C(C)(C)C)c1` here?
The TGI was over 100 µM.

Test system: CCRF-CEM leukemia
Experiment: DTP human tumour cell line panel, 48 h

With `Cc1ccc(/C(O)=C/c2nc3ccccc3[nH]c2=O)cc1` as the compound, how does the TGI read?
Its TGI is over 100 µM.

How did the TGI turn out when `COc1ccc2c(c1)CCc1cc(C(N)=O)c3nnnn3c1-2` was run?
Its TGI is over 91.2 µM.

How did the TGI turn out when `O=C(O)C1Cc2c([nH]c3ccccc23)C(CCCCO)N1` (stereo not given) was run?
Its TGI is over 100 µM.

Test system: NCI-H460 lung
Experiment: DTP human tumour cell line panel, 48 h

With `Cc1ccc(/C(O)=C/c2nc3ccccc3[nH]c2=O)cc1` as the compound, how does the TGI read?
The TGI was 37.3 µM.

Which TGI does the source give for `COc1ccc2c(c1)CCc1cc(C(N)=O)c3nnnn3c1-2` here?
Its TGI is 50.9 µM.

For `O=C(O)C1Cc2c([nH]c3ccccc23)C(CCCCO)N1` (stereo not given), which TGI is on record?
The TGI was over 100 µM.

For `Cc1cc(Cc2c(C)c(C)c(Cc3cc(C)cc(C(C)(C)C)c3O)c(C)c2C)c(O)c(C(C)(C)C)c1`, which TGI is on record?
The TGI was over 100 µM.

Test system: SK-MEL-28 melanoma
Experiment: DTP human tumour cell line panel, 48 h

How did the TGI turn out when `CC(=O)Oc1ccc2c3c1[C@H]1O[C@H]1c1cccc(c1-3)[C@@H]1O[C@H]21` was run?
Its TGI is 27.7 µM.

`Cc1ccc(/C(O)=C/c2nc3ccccc3[nH]c2=O)cc1` was tested. Which TGI did it give?
The TGI was 23.2 µM.

`COc1ccc2c(c1)CCc1cc(C(N)=O)c3nnnn3c1-2` was tested. Which TGI did it give?
Its TGI is over 100 µM.

With `O=C(O)C1Cc2c([nH]c3ccccc23)C(CCCCO)N1` (stereo not given) as the compound, how does the TGI read?
Its TGI is over 100 µM.

With `Cc1cc(Cc2c(C)c(C)c(Cc3cc(C)cc(C(C)(C)C)c3O)c(C)c2C)c(O)c(C(C)(C)C)c1` as the compound, how does the TGI read?
The TGI was over 100 µM.

Test system: HCC-2998 colon
Experiment: DTP human tumour cell line panel, 48 h

For `CC(=O)Oc1ccc2c3c1[C@H]1O[C@H]1c1cccc(c1-3)[C@@H]1O[C@H]21`, which TGI is on record?
Its TGI is 25.3 µM.

How did the TGI turn out when `Cc1ccc(/C(O)=C/c2nc3ccccc3[nH]c2=O)cc1` was run?
Its TGI is over 100 µM.

`COc1ccc2c(c1)CCc1cc(C(N)=O)c3nnnn3c1-2` was tested. Which TGI did it give?
The TGI was over 100 µM.

Test system: HCT-116 colon
Experiment: DTP human tumour cell line panel, 48 h

Which TGI does the source give for `CC(=O)Oc1ccc2c3c1[C@H]1O[C@H]1c1cccc(c1-3)[C@@H]1O[C@H]21` here?
Its TGI is 34.4 µM.

With `Cc1ccc(/C(O)=C/c2nc3ccccc3[nH]c2=O)cc1` as the compound, how does the TGI read?
The TGI was 5.7 µM.

For `COc1ccc2c(c1)CCc1cc(C(N)=O)c3nnnn3c1-2`, which TGI is on record?
Its TGI is over 100 µM.

Which TGI does the source give for `O=C(O)C1Cc2c([nH]c3ccccc23)C(CCCCO)N1` (stereo not given) here?
The TGI was over 100 µM.

For `Cc1cc(Cc2c(C)c(C)c(Cc3cc(C)cc(C(C)(C)C)c3O)c(C)c2C)c(O)c(C(C)(C)C)c1`, which TGI is on record?
The TGI was over 100 µM.

Test system: UO-31 renal
Experiment: DTP human tumour cell line panel, 48 h

How did the TGI turn out when `CC(=O)Oc1ccc2c3c1[C@H]1O[C@H]1c1cccc(c1-3)[C@@H]1O[C@H]21` was run?
The TGI was 8.94 µM.

`Cc1ccc(/C(O)=C/c2nc3ccccc3[nH]c2=O)cc1` was tested. Which TGI did it give?
The TGI was 21 µM.

Which TGI does the source give for `O=C(O)C1Cc2c([nH]c3ccccc23)C(CCCCO)N1` (stereo not given) here?
Its TGI is over 100 µM.

How did the TGI turn out when `Cc1cc(Cc2c(C)c(C)c(Cc3cc(C)cc(C(C)(C)C)c3O)c(C)c2C)c(O)c(C(C)(C)C)c1` was run?
Its TGI is over 100 µM.

Test system: MDA-MB-231 breast
Experiment: DTP human tumour cell line panel, 48 h

How did the TGI turn out when `CC(=O)Oc1ccc2c3c1[C@H]1O[C@H]1c1cccc(c1-3)[C@@H]1O[C@H]21` was run?
The TGI was 31.5 µM.

How did the TGI turn out when `Cc1ccc(/C(O)=C/c2nc3ccccc3[nH]c2=O)cc1` was run?
The TGI was 15.2 µM.

Which TGI does the source give for `COc1ccc2c(c1)CCc1cc(C(N)=O)c3nnnn3c1-2` here?
Its TGI is over 100 µM.

With `O=C(O)C1Cc2c([nH]c3ccccc23)C(CCCCO)N1` (stereo not given) as the compound, how does the TGI read?
Its TGI is over 100 µM.

For `Cc1cc(Cc2c(C)c(C)c(Cc3cc(C)cc(C(C)(C)C)c3O)c(C)c2C)c(O)c(C(C)(C)C)c1`, which TGI is on record?
Its TGI is over 100 µM.

Test system: NCI-H23 lung
Experiment: DTP human tumour cell line panel, 48 h

How did the TGI turn out when `CC(=O)Oc1ccc2c3c1[C@H]1O[C@H]1c1cccc(c1-3)[C@@H]1O[C@H]21` was run?
The TGI was 12.7 µM.

How did the TGI turn out when `Cc1ccc(/C(O)=C/c2nc3ccccc3[nH]c2=O)cc1` was run?
Its TGI is 33.4 µM.

For `COc1ccc2c(c1)CCc1cc(C(N)=O)c3nnnn3c1-2`, which TGI is on record?
Its TGI is over 100 µM.

With `O=C(O)C1Cc2c([nH]c3ccccc23)C(CCCCO)N1` (stereo not given) as the compound, how does the TGI read?
The TGI was over 100 µM.

Test system: SF-539 CNS
Experiment: DTP human tumour cell line panel, 48 h

How did the TGI turn out when `Cc1ccc(/C(O)=C/c2nc3ccccc3[nH]c2=O)cc1` was run?
The TGI was 27.6 µM.

Which TGI does the source give for `COc1ccc2c(c1)CCc1cc(C(N)=O)c3nnnn3c1-2` here?
Its TGI is over 100 µM.

With `O=C(O)C1Cc2c([nH]c3ccccc23)C(CCCCO)N1` (stereo not given) as the compound, how does the TGI read?
The TGI was over 100 µM.

How did the TGI turn out when `Cc1cc(Cc2c(C)c(C)c(Cc3cc(C)cc(C(C)(C)C)c3O)c(C)c2C)c(O)c(C(C)(C)C)c1` was run?
The TGI was over 100 µM.

Test system: EKVX NSCLC
Experiment: DTP human tumour cell line panel, 48 h

How did the TGI turn out when `CC(=O)Oc1ccc2c3c1[C@H]1O[C@H]1c1cccc(c1-3)[C@@H]1O[C@H]21` was run?
Its TGI is 36.9 µM.

Which TGI does the source give for `Cc1ccc(/C(O)=C/c2nc3ccccc3[nH]c2=O)cc1` here?
The TGI was 21.1 µM.

`O=C(O)C1Cc2c([nH]c3ccccc23)C(CCCCO)N1` (stereo not given) was tested. Which TGI did it give?
The TGI was over 100 µM.

For `Cc1cc(Cc2c(C)c(C)c(Cc3cc(C)cc(C(C)(C)C)c3O)c(C)c2C)c(O)c(C(C)(C)C)c1`, which TGI is on record?
The TGI was over 100 µM.

Test system: SF-295 CNS
Experiment: DTP human tumour cell line panel, 48 h

How did the TGI turn out when `CC(=O)Oc1ccc2c3c1[C@H]1O[C@H]1c1cccc(c1-3)[C@@H]1O[C@H]21` was run?
Its TGI is 25 µM.

How did the TGI turn out when `Cc1ccc(/C(O)=C/c2nc3ccccc3[nH]c2=O)cc1` was run?
Its TGI is 14.6 µM.

How did the TGI turn out when `COc1ccc2c(c1)CCc1cc(C(N)=O)c3nnnn3c1-2` was run?
Its TGI is 98.5 µM.
